From patent US9238656B2, “Imidazo[4,5-b]pyridine derivatives as ALK and JAK modulators for the treatment of proliferative disorders” (priority 2012, dated 2016)
Where a name gives a salt, the structure may show the parent alone. Read-outs that look alike come from different tables or passages of the source.

How the values were obtained:
[1] = molecular target: baculovirus-expressed ALK (Homo sapiens, UniProt Q9UM73); test: ALK kinase inhibition, TRF/ELISA; type: biochemical; settings: read-out: ALK Potency
Protocol: Briefly, each 96-well plate was coated with 100 μL/well of 10 μg/mL substrate (GST-PLC-γ) in Tris-buffered saline (TBS). […] The reaction was initiated by adding enzyme (30 ng/mL ALK) and was allowed to proceed at 37° C. for 15 minutes. Detection of the phosphorylated product was performed by adding 100 μL/well of Eu-N1 labeled PT66 antibody (Perkin Elmer #AD0041). […] Data analysis was performed using ActivityBase (IDBS, Guilford, UK). IC50 values were calculated by plotting percent inhibition versus log10 of the concentration of compound and fitting to the nonlinear regression sigmoidal dose-response (variable slope) equation in XLFit (IDBS, Guilford, UK).

[2] = molecular target: baculovirus-expressed JAK2 kinase (Homo sapiens, UniProt O60674); test: biochemical; settings: read-out: JAK2 Potency
Protocol: Compounds were tested for their ability to inhibit the kinase activity of baculovirus-expressed JAK2 kinase using the time-resolved fluorescence (TRF) detection system. […] The plates were coated with 100 μL/well of 10 μg/mL Neutravidin (Pierce #31000, Rockford, Ill.) in TBS at 37° C. for 2 h, followed by 100 μL/well of 1 μg/mL 15-mer peptide substrate (biotinyl-amino-hexanoyl-[…]-amide, Infinity Biotech Research and Resource, Aston, Pa.) at 37° C. for 1 h. […] Enzyme (15 ng/mL JAK2) was added and the reaction was allowed to proceed at room temperature for 20 min. […] Inhibition data were analyzed using ActivityBase (IDBS, Guilford, UK). IC50 values were calculated by plotting percent inhibition versus log10 of the concentration of compound and fitting to the nonlinear regression sigmoidal dose-response (variable slope) equation in XLFit (IDBS, Guilford, UK).

Chain of baculovirus-expressed JAK2 kinase (O60674 whole entry): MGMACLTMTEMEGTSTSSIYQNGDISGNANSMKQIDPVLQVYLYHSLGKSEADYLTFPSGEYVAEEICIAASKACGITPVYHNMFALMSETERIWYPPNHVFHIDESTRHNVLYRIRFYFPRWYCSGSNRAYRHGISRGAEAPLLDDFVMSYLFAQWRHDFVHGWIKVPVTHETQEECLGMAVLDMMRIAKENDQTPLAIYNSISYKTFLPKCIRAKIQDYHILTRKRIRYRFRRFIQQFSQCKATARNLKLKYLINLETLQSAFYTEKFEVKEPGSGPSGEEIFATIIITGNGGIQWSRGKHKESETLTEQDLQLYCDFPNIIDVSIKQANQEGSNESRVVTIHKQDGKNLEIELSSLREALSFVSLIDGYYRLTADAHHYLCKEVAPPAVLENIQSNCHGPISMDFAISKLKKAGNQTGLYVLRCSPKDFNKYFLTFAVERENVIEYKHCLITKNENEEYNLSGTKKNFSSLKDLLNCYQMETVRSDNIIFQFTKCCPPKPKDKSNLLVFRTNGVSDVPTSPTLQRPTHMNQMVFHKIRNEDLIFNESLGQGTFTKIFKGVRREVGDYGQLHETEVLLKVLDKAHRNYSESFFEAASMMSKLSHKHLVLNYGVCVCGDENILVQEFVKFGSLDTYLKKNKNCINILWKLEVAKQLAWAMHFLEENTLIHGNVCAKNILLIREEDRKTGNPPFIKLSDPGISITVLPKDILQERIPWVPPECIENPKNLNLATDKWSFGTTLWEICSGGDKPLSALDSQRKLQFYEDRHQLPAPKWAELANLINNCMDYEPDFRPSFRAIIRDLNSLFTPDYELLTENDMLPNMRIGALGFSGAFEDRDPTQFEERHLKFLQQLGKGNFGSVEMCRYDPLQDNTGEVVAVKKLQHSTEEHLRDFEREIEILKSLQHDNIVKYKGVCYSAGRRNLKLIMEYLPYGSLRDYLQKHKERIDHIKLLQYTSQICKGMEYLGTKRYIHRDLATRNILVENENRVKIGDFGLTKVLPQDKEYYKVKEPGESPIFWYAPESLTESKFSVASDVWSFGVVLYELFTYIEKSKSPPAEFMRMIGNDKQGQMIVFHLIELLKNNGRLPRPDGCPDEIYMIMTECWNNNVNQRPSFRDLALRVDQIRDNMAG
Chain of baculovirus-expressed ALK (Q9UM73 19-1620): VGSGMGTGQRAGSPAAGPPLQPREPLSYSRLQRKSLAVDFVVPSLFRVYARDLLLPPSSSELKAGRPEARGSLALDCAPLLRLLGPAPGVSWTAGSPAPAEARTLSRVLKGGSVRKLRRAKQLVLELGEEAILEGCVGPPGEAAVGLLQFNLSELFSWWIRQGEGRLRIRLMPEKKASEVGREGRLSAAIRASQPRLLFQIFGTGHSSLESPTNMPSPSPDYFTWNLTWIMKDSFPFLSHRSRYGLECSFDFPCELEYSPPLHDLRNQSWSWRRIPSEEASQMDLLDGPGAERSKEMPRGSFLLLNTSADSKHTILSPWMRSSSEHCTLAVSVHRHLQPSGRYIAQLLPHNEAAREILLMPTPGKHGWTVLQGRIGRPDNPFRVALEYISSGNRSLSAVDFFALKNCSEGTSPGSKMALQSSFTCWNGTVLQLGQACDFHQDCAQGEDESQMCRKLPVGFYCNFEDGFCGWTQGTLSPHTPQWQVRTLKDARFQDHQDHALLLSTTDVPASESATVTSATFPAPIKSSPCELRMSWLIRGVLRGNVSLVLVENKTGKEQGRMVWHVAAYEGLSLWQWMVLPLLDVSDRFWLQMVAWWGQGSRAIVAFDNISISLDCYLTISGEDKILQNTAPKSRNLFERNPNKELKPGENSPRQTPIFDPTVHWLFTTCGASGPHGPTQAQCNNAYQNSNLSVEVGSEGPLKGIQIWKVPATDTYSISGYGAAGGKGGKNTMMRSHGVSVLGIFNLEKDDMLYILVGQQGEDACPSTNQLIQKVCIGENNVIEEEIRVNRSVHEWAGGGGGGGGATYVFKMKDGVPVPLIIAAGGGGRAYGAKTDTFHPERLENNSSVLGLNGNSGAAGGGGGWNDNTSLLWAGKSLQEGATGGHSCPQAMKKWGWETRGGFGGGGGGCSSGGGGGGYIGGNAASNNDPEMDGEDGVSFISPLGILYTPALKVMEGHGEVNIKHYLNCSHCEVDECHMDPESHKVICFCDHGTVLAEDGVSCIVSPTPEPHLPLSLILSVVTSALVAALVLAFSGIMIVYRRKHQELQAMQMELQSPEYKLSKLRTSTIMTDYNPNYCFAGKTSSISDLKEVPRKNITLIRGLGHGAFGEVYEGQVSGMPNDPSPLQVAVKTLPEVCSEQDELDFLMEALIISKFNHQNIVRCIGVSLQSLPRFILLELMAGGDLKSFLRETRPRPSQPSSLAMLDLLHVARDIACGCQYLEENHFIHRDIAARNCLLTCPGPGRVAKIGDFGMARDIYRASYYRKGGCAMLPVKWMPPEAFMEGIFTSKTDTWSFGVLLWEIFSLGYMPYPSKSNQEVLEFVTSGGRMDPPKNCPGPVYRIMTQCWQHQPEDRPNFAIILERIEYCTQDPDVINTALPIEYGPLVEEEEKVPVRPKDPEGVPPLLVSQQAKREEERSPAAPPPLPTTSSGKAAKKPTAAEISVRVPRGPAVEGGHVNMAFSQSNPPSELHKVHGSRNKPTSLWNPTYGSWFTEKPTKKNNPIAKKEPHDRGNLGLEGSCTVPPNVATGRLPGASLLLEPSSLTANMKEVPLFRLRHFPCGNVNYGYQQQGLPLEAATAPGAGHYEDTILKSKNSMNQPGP

Molecule | IC50 [1] | IC50 ([2]; 0.2 μM ATP) | IC50 [2]
NC(=O)[C@@H]1[C@H](Nc2c(Cl)cnc3[nH]c(-c4ccc(C(=O)O)cc4)nc23)[C@H]2C=C[C@@H]1C2 [Compound CCXVIII, 4-(7-((1R,2R,3S,4S)-3-carbamoylbicyclo[2.2.1]hept-5-en-2-ylamino)-6-chloro-3H-imidazo[4,5-b]pyridin-2-yl)benzoic acid] | 100 to 1000 nM | < 100 nM | –
CN(C)c1nc(Cl)c(-c2nc3c(N[C@H]4[C@@H](C(N)=O)[C@@H]5C=C[C@H]4C5)c(Br)cnc3[nH]2)s1 [Compound CLV, (1S,2S,3R,4R)-3-[6-Bromo-2-(4-chloro-2-dimethylamino-thiazol-5-yl)-3H-imidazo[4,5-b]pyridin-7-ylamino]-bicyclo[2.2.1]hept-5-ene-2-carboxylic acid amide] | < 100 nM | < 100 nM | –
NC(=O)[C@@H]1[C@H](Nc2c(Cl)cnc3[nH]c(-c4ccc(C(=O)N5CCNCC5)cc4)nc23)[C@H]2C=C[C@@H]1C2 [Compound CCXX, (1S,2S,3R,4R)-3-(6-chloro-2-(4-(piperazine-1-carbonyl)phenyl)-3H-imidazo[4,5-b]pyridin-7-ylamino)bicyclo[2.2.1]hept-5-ene-2-carboxamide] | < 100 nM | < 100 nM | –
CN1CCN(CCOc2ccc(-c3nc4c(N[C@H]5[C@@H](C(=O)N(C)C)[C@@H]6C=C[C@H]5C6)c(Cl)cnc4[nH]3)cc2)CC1 [Compound CLXXV, (1S,2S,3R,4R)-3-(6-Chloro-2-{4-[2-(4-methyl-piperazin-1-yl)-ethoxy]-phenyl}-3H-imidazo[4,5-b]pyridin-7-ylamino)-bicyclo[2.2.1]hept-5-ene-2-carboxylic acid dimethylamide] | < 100 nM | < 100 nM | –
Cc1nc(C2CCNCC2)sc1-c1nc2c(N[C@H]3[C@@H](C(N)=O)[C@@H]4C=C[C@H]3C4)c(Cl)cnc2[nH]1 [Compound LXIV, (1S,2S,3R,4R)-3-[6-Chloro-2-(4-methyl-2-piperidin-4-yl-thiazol-5-yl)-3H-imidazo[4,5-b]pyridine-7-ylamino]-bicyclo[2.2.1]hept-5-ene-2-carboxylic acid amide] | < 100 nM | < 100 nM | –
NC(=O)[C@@H]1[C@H](Nc2c(Cl)cnc3[nH]c(-c4cccc(OCC(=O)O)c4)nc23)[C@H]2C=C[C@@H]1C2 [Compound CCLXIII, 2-(3-(7-((1R,2R,3S,4S)-3-carbamoylbicyclo[2.2.1]hept-5-en-2-ylamino)-6-chloro-3H-imidazo[4,5-b]pyridin-2-yl)phenoxy)acetic acid] | 100 to 1000 nM | < 100 nM | –
N#Cc1cccc(-c2nc3c(N[C@H]4[C@@H](C(N)=O)[C@@H]5C=C[C@H]4C5)c(Cl)cnc3[nH]2)c1 [Compound CXLIV, (1S,2S,3R,4R)-3-[6-Chloro-2-(3-cyano-phenyl)-3H-imidazo[4,5-b]pyridin-7-ylamino]-bicyclo[2.2.1]hept-5-ene-2-carboxylic acid amide] | 100 to 1000 nM | < 100 nM | –
NC(=O)[C@@H]1[C@H](Nc2c(Cl)cnc3[nH]c(-c4cnn(C5CCNCC5)c4)nc23)[C@H]2C=C[C@@H]1C2 [Compound LVII, (1S,2S,3R,4R)-3-[6-Chloro-2-(1-piperidin-4-yl-1H-pyrazol-4-yl)-3H-imidazo[4,5-b]pyridine-7-ylamino]-bicyclo[2.2.1]hept-5-ene-2-carboxylic acid amide] | – | < 100 nM | –
4-{2-[7-((1R,2R,3S,4S)-3-Carbamoyl-bicyclo[2.2.1]hept-5-en-2-ylamino)-6-chloro-3H-imidazo[4,5-b]pyridine-2-yl}-5-methoxy-phenyl]-piperidinej-1-carboxylic acid tert-butyl ester [Compound XXIX] | – | – | 1000 to 10000 nM
Cn1cc(-c2nc3c(N[C@H]4[C@@H](C(N)=O)[C@@H]5C=C[C@H]4C5)c(Cl)cnc3[nH]2)cn1 [Compound VIII, (1S,2S,3R,4R)-3-[6-Chloro-2-(1-methyl-1H-pyrazol-4-yl)-3H-imidazo[4,5-b]pyridine-7-ylamino]-bicyclo[2.2.1]hept-5-ene-2-carboxylic acid amide] | – | < 100 nM | –

More lines, main results first:

IC50 [1] | IC50 ([2]; 0.2 μM ATP) | Molecule | IC50 [2]
100 to 1000 nM | < 100 nM | COc1ccccc1Nc1nc2c(N[C@H]3[C@@H](C(N)=O)[C@@H]4C=C[C@H]3C4)c(Cl)cnc2[nH]1 [Compound LXVIII, (1S,2S,3R,4R)-3-[6-Chloro-2-(2-methoxy-phenylamino)-3H-imidazo[4,5-b]pyridine-7-ylamino]-bicyclo[2.2.1]hept-5-ene-2-carboxylic acid amide] | –
– | < 100 nM | COc1cccc(-c2nc3c(N[C@H]4[C@@H](C(N)=O)[C@@H]5C=C[C@H]4C5)c(Cl)cnc3[nH]2)c1 [Compound V, (1S,2S,3R,4R)-3-[6-Chloro-2-(3-methoxy-phenyl)-3H-imidazo[4,5-b]pyridin-7-ylamino]-bicyclo[2.2.1]hept-5-ene-2-carboxylic acid amide] | –
– | 100 to 1000 nM | NC(=O)[C@H]1[C@@H](Nc2c(Cl)cnc3[nH]c(-c4cccc(N5CCOCC5)c4)nc23)[C@@H]2C=C[C@H]1C2 [Compound XXV, (1R,2R,3S,4S)-3-[6-Chloro-2-(3-morpholin-4-yl-phenyl)-3H-imidazo[4,5-b]pyridine-7-ylamino]-bicyclo[2.2.1]hept-5-ene-2-carboxylic acid amide] | –
– | < 100 nM | COc1cc(N2CCC(N3CCN(C)CC3)CC2)ccc1-c1nc2c(N[C@H]3[C@@H](C(N)=O)[C@@H]4C=C[C@H]3C4)c(Cl)cnc2[nH]1 [Compound XXIII, (1S,2S,3R,4R)-3-(6-Chloro-2-{2-methoxy-4-[4-(4-methyl-piperazin-1-yl)-piperidin-1-yl]-phenyl}-3H-imidazo[4,5-b]pyridin-7-ylamino)-bicyclo[2.2.1]hept-5-ene-2-carboxylic acid amide] | –
– | 100 to 1000 nM | COc1cc(N2CCN(C)CC2)ccc1-c1nc2c(N[C@@H]3[C@H](C(N)=O)[C@H]4C=C[C@@H]3C4)c(Cl)cnc2[nH]1 [Compound XXVIII, (1R,2R,3S,4S)-3-{6-Chloro-2-[2-methoxy-4-(4-methyl-piperazin-1-yl)-phenyl]-3H-imidazo[4,5-b]pyridin-7-ylamino}-bicyclo[2.2.1]hept-5-ene-2-carboxylic acid amide] | –
– | < 100 nM | CN1CCN(c2ccc(-c3nc4c(N[C@H]5[C@@H](C(N)=O)[C@@H]6C=C[C@H]5C6)c(Cl)cnc4[nH]3)cc2)CC1 [Compound X, (1S,2S,3R,4R)-3-{6-Chloro-2-[4-(4-methyl-piperazin-1-yl)-phenyl]-3H-imidazo[4,5-b]pyridine-7-ylamino}-bicyclo[2.2.1]hept-5-ene-2-carboxylic acid amide trifluoroacetic acid salt] | –
– | < 100 nM | NC(=O)[C@@H]1[C@H](Nc2c(Cl)cnc3[nH]c(-c4cccc(N5CCOCC5)c4)nc23)[C@H]2C=C[C@@H]1C2 [Compound VII, (1S,2S,3R,4R)-3-[6-Chloro-2-(3-morpholin-4-yl-phenyl)-3H-imidazo[4,5-b]pyridine-7-ylamino]-bicyclo[2.2.1]hept-5-ene-2-carboxylic acid amide] | –
– | < 100 nM | COc1ccc(-c2nc3c(N[C@H]4[C@@H](C(N)=O)[C@@H]5C=C[C@H]4C5)c(Cl)cnc3[nH]2)cc1 [Compound VI, (1S,2S,3R,4R)-3-[6-Chloro-2-(4-methoxy-phenyl)-3H-imidazo[4,5-b]pyridine-7-ylamino]-bicyclo[2.2.1]hept-5-ene-2-carboxylic acid amide] | –
– | < 100 nM | COc1cc(N2CCN(C)CC2)ccc1-c1nc2c(N[C@H]3[C@@H](C(N)=O)[C@@H]4C=C[C@H]3C4)c(Cl)cnc2[nH]1 [Compound XXI, (1S,2S,3R,4R)-3-{6-Chloro-2-[2-methoxy-4-(4-methyl-piperazin-1-yl)-phenyl]-3H-imidazo[4,5-b]pyridin-7-ylamino}-bicyclo[2.2.1]hept-5-ene-2-carboxylic acid amide trifluoroacetic acid salt] | –
– | < 100 nM | NC(=O)[C@@H]1[C@H](Nc2c(Cl)cnc3[nH]c(-c4ccc(N5CCOCC5)cc4)nc23)[C@H]2C=C[C@@H]1C2 [Compound IV, (1S,2S,3R,4R)-3-[6-Chloro-2-(4-morpholin-4-yl-phenyl)-3H-imidazo[4,5-b]pyridine-7-ylamino]-bicyclo[2.2.1]hept-5-ene-2-carboxylic acid amide] | –
– | < 100 nM | COc1ccccc1-c1nc2c(N[C@H]3[C@@H](C(N)=O)[C@@H]4C=C[C@H]3C4)c(Cl)cnc2[nH]1 [Compound IX, (1S,2S,3R,4R)-3-[6-Chloro-2-(2-methoxy-phenyl)-3H-imidazo[4,5-b]pyridine-7-ylamino]-bicyclo[2.2.1]hept-5-ene-2-carboxylic acid amide] | –
– | < 100 nM | CN1CCN(c2ccc(-c3nc4c(N[C@@H]5[C@H](C(N)=O)[C@H]6C=C[C@@H]5C6)c(Cl)cnc4[nH]3)cc2)CC1 [Compound XXVI, (1R,2R,3S,4S)-3-{6-Chloro-2-[4-(4-methyl-piperazin-1-yl)-phenyl]-3H-imidazo[4,5-b]pyridine-7-ylamino}-bicyclo[2.2.1]hept-5-ene-2-carboxylic acid amide] | –
